Reference: patent publication US10688099B2, “Methods for modulating the amount of RNA transcripts” (PTC Therapeutics, Inc., priority 2013, dated 2020)

System: SMN2 FL and SMN2 Δ7 mRNA
Assay: RT-qPCR analysis of SMN2 full length (FL) and Δ7 mRNAs in cultured cells
Type: cell-based, human
Conditions: FIG. 1
Procedure: Cells are plated at a certain density in an appropriate medium in 96-well flat-bottom plates. The plate is immediately swirled to ensure even distribution of the cells to ensure the formation of an even monolayer of cells and incubated for 6-24 hrs at 37° C. Cells are then treated with serially diluted test compound (e.g., 3.16-fold dilution factor, 0.5% final concentration of DMSO), in duplicate, for desired time under appropriate conditions (e.g., 37° C., 5% CO2, 100% relative humidity). After supernatant removal, cells are lysed (e.g., in Cells-To-Ct lysis buffer, Life Technologies). The levels of RNA of interest, and a reference RNA (e.g., GAPDH mRNA) are quantified (e.g., by using Taqman-based RT-qPCR) by assays designed to detect each mRNA of interest specifically. The forward and reverse primers are used at the appropriate concentration (e.g., 0.1-1 μM), as well as the probe (e.g., 0.1 to 0.3 μM). GAPDH primers are typically at 0.1 μM and the probe at 0.075 μM. RT-qPCR is carried out using an appropriate protocol. One example of such a protocol is the following temperatures for indicated time: Step 1: 48° C. (15 min); Step 2: 95° C. (10 min); Step 3: 95° C. (15 sec); Step 4: 60° C. (1 min); then, repeat Steps 3 and 4 for a total of 40 cycles. Fluorescence is recorded in each cycle at the end of the Step 4 incubation. […] The Ct values for each mRNA are converted to mRNA abundance using actual PCR efficiencies, and may be calculated essentially as described in Liu and Saint (Anal Biochem 302:52). […]
GM03813 (Coriell Institute) and PNN 1-46 fibroblasts (Columbia University) derived from SMA Type I patients were plated at 5,000 cells/well in 200 μL Dulbecco's modified Eagle's medium (DMEM) with GlutaMAX and 10% fetal bovine serum (FBS) (Life Technologies, Inc.) in 96-well plates, and incubated for 6 hours in a cell culture incubator (37° C., 5% CO2, 100% relative humidity). […] The mRNA levels of SMN2 FL, SMN2 Δ7 and GAPDH were quantified using Taqman-based RT-qPCR and SMN2-specific primers and probes in Table 5 (purchased from Life Technologies, Inc.). […]

[1] = SMA Type I patient fibroblasts, treatment for 24 hours

`CCN1CCC(c2cc(C)c3nc(-c4cc5c(C)nc(C)cn5n4)cc(=O)n3c2)CC1` [Compound 702] was tested, and the “splicing alteration of SMN2 transcripts” value (SMA Type I fibroblast cells (PNN 1-46), 500 nM, 24 hours) was “complete splicing alteration of all SMN2 transcripts”, the “expression of exon 7 lacking (Δ7) mRNA” value [1] was “dose dependent expression” and the “expression of full length (FL) mRNA” value [1] was “dose dependent expression”.
